Laboratory results taken from US20240124442A1, “TRICYCLIC-AMIDO-BICYCLIC PRMT5 INHIBITORS” (AMGEN INC., priority 2021, published 2024).

Experiments:
HCT116 WT cells = experiment: HCT116 WT (parent) cell line proliferation / cell viability (CellTiter-Glo, 6 days); format: cell-based; conditions: Homo sapiens, HCT-116, 144 h, 6 days treatment
Method in brief: (§1)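 WT vs MTAP-null HCT116, 6 d drug, CTG readout. 1:3 × 8–9 pts (top 1/10 μM) or 1:2 × 22 pts (top 10/50 μM). IC50 by 4PL or Hill −1 fit.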

HCT116 MTAP null cells = experiment: HCT116 MTAP null cell line proliferation / cell viability (CellTiter-Glo, 6 days); format: cell-based; conditions: 144 h; HCT116 MTAP null cells, 6 days treatment, CellTiter-Glo cell viability; read-out: HCT-116 MTAP null IC50
Method in brief: as §1

Row | Structure (SMILES) | IC50 (HCT116 WT cells) [nM] | IC50 (HCT116 MTAP null cells) [nM]
1 | CN(C(=O)c1cc2c(cc1F)nc(N)c1c2cnn1C)[C@@H]1CCc2nc(C(F)(F)F)ccc21 (single isomer, unassigned) [Example 389] | 17200 | 185
2 | CN(C(=O)c1cc2c(cc1F)nc(N)c1c2cnn1C)[C@H]1CCc2nc(C(F)(F)F)ccc21 (single isomer, unassigned) [Example 390] | 25000 | 6550
3 | Cc1nn(C)c2c1c(N)nc1cc(F)c(C(=O)N(C)[C@H]3COc4cc(S(F)(F)(F)(F)F)ccc43)cc12 (single isomer, unassigned) [Example 392] | 8300 | 995
4 | COc1ccc2c(c1)COC[C@H]2N(C)C(=O)c1ccc2nc(N)c3c(c2c1)COC3 (single isomer, unassigned) [Example 393] | 4070 | 136
5 | C[C@H]1OCc2c1c(N)nc1ccc(C(=O)N(C)[C@H]3COCc4cc(Br)ccc43)cc21 (single isomer, unassigned) [Example 395] | 10000 | 696
6 | CCN(C(=O)c1ccc2nc(N)c3c(c2c1)CO[C@@H]3C)[C@H]1COCc2cc(Br)ccc21 (single isomer, unassigned) [Example 397] | 18700 | 599
7 | CN(C(=O)c1cc2c3c(c(N)nc2cn1)COC3)[C@H]1COCc2cc(Br)ccc21 (single isomer, unassigned) [Example 399] | 10000 | 1330
8 | CN(C(=O)c1cc2c3c(c(N)nc2cc1F)COC3)[C@@H]1CCOc2cc(C(F)(F)F)ccc21 (single isomer, unassigned) [Example 401] | 6570 | 148
9 | CN(C(=O)c1cc2c3c(c(N)nc2cc1Cl)COC3)[C@H]1COCc2nc(C#N)ccc21 (single isomer, unassigned) [Example 403] | 25800 | 463
10 | CN(C(=O)c1cc2c3c(c(N)nc2cc1Cl)COC3)[C@H]1COCc2c1ccc(C(F)(F)F)c2F (single isomer, unassigned) [Example 405] | 14700 | 696
11 | CN(C(=O)c1ccc2nc(N)c3cnn(C)c3c2c1)[C@@H]1COCc2c(F)cncc21 (single isomer, unassigned) [Example 407] | 23300 | 554
12 | CN(C(=O)c1ccc2nc(N)c3cnn(C)c3c2c1)[C@@H]1COCc2c1ccc(F)c2F (single isomer, unassigned) [Example 409] | 3910 | 48
13 | CN(C(=O)c1ccc2nc(N)c3cnn(C)c3c2c1)[C@@H]1CCCc2nc(C(F)(F)F)ccc21 (single isomer, unassigned) [Example 411] | 6270 | 83
14 | CN(C(=O)c1ccc2nc(N)c3cnn(C)c3c2c1)[C@H]1COCc2cc(Br)ccc21 (single isomer, unassigned) [Example 413] | 7990 | 360
15 | CN(C(=O)c1ccc2nc(N)c3cnn(C)c3c2c1)[C@H]1COCc2c1ccc(C(F)(F)F)c2F (single isomer, unassigned) [Example 417] | 6100 | 841
16 | CN(C(=O)c1ccc2nc(N)c3cnn(C)c3c2c1)[C@H]1COCc2nc(Br)ccc21 (single isomer, unassigned) [Example 419] | 26400 | 545
17 | COc1ccc2c(c1)COC[C@@H]2N(C)C(=O)c1cc2c(cn1)nc(N)c1cnn(C)c12 (single isomer, unassigned) [Example 421] | 35200 | 792
18 | CN(C(=O)c1cc2c(cc1F)nc(N)c1cnn(C)c12)[C@H]1COCc2ncccc21 (single isomer, unassigned) [Example 424] | 18600 | 593
19 | CN(C(=O)c1cc2c(cc1F)nc(N)c1cnn(C)c12)[C@@H]1COCc2c(F)cncc21 (single isomer, unassigned) [Example 425] | 13400 | 158
20 | CN(C(=O)c1cc2c(cc1F)nc(N)c1cnn(C)c12)[C@H]1COCc2c(F)cncc21 (single isomer, unassigned) [Example 426] | 27900 | 355
21 | COc1ccc2c(c1)COC[C@@H]2N(C)C(=O)c1cc2c(cc1F)nc(N)c1cnn(C)c12 (single isomer, unassigned) [Example 428] | 8340 | 275
22 | CN(C(=O)c1cc2c(cc1F)nc(N)c1cnn(C)c12)[C@H]1COCc2cc(OC(F)(F)F)ccc21 (single isomer, unassigned) [Example 431] | 5880 | 305
23 | CN(C(=O)c1cc2c(cc1F)nc(N)c1cnn(C)c12)[C@H]1COCc2c1ccc(C(F)(F)F)c2F (single isomer, unassigned) [Example 433] | 3280 | 418
24 | CN(C(=O)c1cc2c(cc1F)nc(N)c1cnn(C)c12)[C@@H]1CC(C)(C)Cc2nc(C(F)(F)F)ccc21 (single isomer, unassigned) [Example 434] | 11500 | 223
25 | CN(C(=O)c1cc2c(cc1F)nc(N)c1cnn(C)c12)[C@H]1CC(C)(C)Cc2nc(C(F)(F)F)ccc21 (single isomer, unassigned) [Example 435] | 13400 | 320

The next compounds have a lower IC50 (HCT116 WT cells) than those just listed; values first:

Row | IC50 (HCT116 WT cells) [nM] | IC50 (HCT116 MTAP null cells) [nM] | Structure (SMILES)
26 | 1040 | 38 | Cc1nn(C)c2c1c(N)nc1cc(F)c(C(=O)N(C)[C@@H]3COc4cc(S(F)(F)(F)(F)F)ccc43)cc12 (single isomer, unassigned) [Example 391]
27 | 1440 | 25 | C[C@H]1OCc2c1c(N)nc1ccc(C(=O)N(C)[C@@H]3COCc4cc(Br)ccc43)cc21 (single isomer, unassigned) [Example 394]
28 | 272 | 10 | CCN(C(=O)c1ccc2nc(N)c3c(c2c1)CO[C@@H]3C)[C@@H]1COCc2cc(Br)ccc21 (single isomer, unassigned) [Example 396]
29 | 911 | 20 | CN(C(=O)c1cc2c3c(c(N)nc2cn1)COC3)[C@@H]1COCc2cc(Br)ccc21 (single isomer, unassigned) [Example 398]
30 | 2110 | 50 | COc1ccc2c(c1)COC[C@H]2N(C)C(=O)c1cc2c3c(c(N)nc2cc1F)COC3 (single isomer, unassigned) [Example 400]
31 | 436 | 8 | CN(C(=O)c1cc2c3c(c(N)nc2cc1Cl)COC3)[C@@H]1COCc2nc(C#N)ccc21 (single isomer, unassigned) [Example 402]
32 | 250 | 9 | CN(C(=O)c1cc2c3c(c(N)nc2cc1Cl)COC3)[C@@H]1COCc2c1ccc(C(F)(F)F)c2F (single isomer, unassigned) [Example 404]
33 | 322 | 11 | C[C@H]1OC[C@@H](N(C)C(=O)c2cc3c4c(c(N)nc3nc2Cl)COC4)c2ccc(C(F)(F)F)cc21 (single isomer, unassigned) [Example 406]
34 | 1710 | 24 | COc1ccc2c(c1)COC[C@H]2N(C)C(=O)c1ccc2nc(N)c3cnn(C)c3c2c1 (single isomer, unassigned) [Example 408]
35 | 1470 | 21 | CCOc1ccc2c(n1)COC[C@H]2N(C)C(=O)c1ccc2nc(N)c3cnn(C)c3c2c1 (single isomer, unassigned) [Example 410]
36 | 228 | 4 | CN(C(=O)c1ccc2nc(N)c3cnn(C)c3c2c1)[C@@H]1COCc2cc(Br)ccc21 (single isomer, unassigned) [Example 412]
37 | 19 | 1 | C[C@H]1OC[C@@H](N(C)C(=O)c2ccc3nc(N)c4cnn(C)c4c3c2)c2ccc(C(F)(F)F)cc21 (single isomer, unassigned) [Example 414]
38 | 2630 | 78 | C[C@@H]1OC[C@H](N(C)C(=O)c2ccc3nc(N)c4cnn(C)c4c3c2)c2ccc(C(F)(F)F)cc21 (single isomer, unassigned) [Example 415]
39 | 414 | 6 | CN(C(=O)c1ccc2nc(N)c3cnn(C)c3c2c1)[C@@H]1COCc2c1ccc(C(F)(F)F)c2F (single isomer, unassigned) [Example 416]
40 | 421 | 3 | CN(C(=O)c1ccc2nc(N)c3cnn(C)c3c2c1)[C@@H]1COCc2nc(Br)ccc21 (single isomer, unassigned) [Example 418]
41 | 439 | 15 | COc1ccc2c(c1)COC[C@H]2N(C)C(=O)c1cc2c(cn1)nc(N)c1cnn(C)c12 (single isomer, unassigned) [Example 420]
42 | 241 | 10 | CN(C(=O)c1cc2c(cn1)nc(N)c1cnn(C)c12)[C@@H]1COCc2c1ccc(C(F)(F)F)c2F (single isomer, unassigned) [Example 422]
43 | 1610 | 39 | CN(C(=O)c1cc2c(cc1F)nc(N)c1cnn(C)c12)[C@@H]1COCc2ncccc21 (single isomer, unassigned) [Example 423]
44 | 247 | 8 | COc1ccc2c(c1)COC[C@H]2N(C)C(=O)c1cc2c(cc1F)nc(N)c1cnn(C)c12 (single isomer, unassigned) [Example 427]
45 | 2350 | 49 | CN(C(=O)c1cc2c(cc1F)nc(N)c1cnn(C)c12)[C@@H]1CCCc2nc(C(F)(F)F)ccc21 (single isomer, unassigned) [Example 429]
46 | 75 | 3 | CN(C(=O)c1cc2c(cc1F)nc(N)c1cnn(C)c12)[C@@H]1COCc2cc(OC(F)(F)F)ccc21 (single isomer, unassigned) [Example 430]
47 | 127 | 9 | CN(C(=O)c1cc2c(cc1F)nc(N)c1cnn(C)c12)[C@@H]1COCc2c1ccc(C(F)(F)F)c2F (single isomer, unassigned) [Example 432]
